Laboratory results from article PMC12396409, “Screening and hit evaluation of a microbial metabolite library against the pathogenic Plasmodium falciparum and Toxoplasma gondii parasites” (International Journal for Parasitology: Drugs and Drug …, 2025).
Where two headings read alike, the source gives them in different places.

Experiments:
[1] = tested on: P. falciparum 3D7 parasites; test: P. falciparum growth inhibition assay, 1-cycle (72 h treatment), SYBR DNA staining (library screen at 2 μg/mL and dose-response); format: cell-based, Plasmodium falciparum; conditions: for activity at 2 µg/mL: Plasmodium falciparum
[2] = tested on: P. falciparum 3D7 parasites; test: P. falciparum growth inhibition assay, 2-cycle (120 h treatment), delayed-death screen and dose-response; format: cell-based, Plasmodium falciparum; conditions: for activity at 2 µg/mL: Plasmodium falciparum
[3] = tested on: T. gondii RH strain (RH-Tub-eYFP) tachyzoites; test: microbe, parasite or virus in culture; format: cell-based, Toxoplasma gondii; conditions: for percent parasite growth at 2 µg/mL: Toxoplasma gondii
[4] = library screen at 2 μg/mL, 72 h, % growth, replicate 1
[5] = library screen at 2 μg/mL, 72 h, % growth, replicate 2

C=C1CC[C@H]2[C@@](C)(CC[C@H]3C(C)(C)[C@@H](OC(C)=O)CC[C@]23C)[C@@H]1Cc1c(O)cc(C)oc1=O [Aszonapyrone A]
Pf_72h_%Growth_Rep1 [1, 4]: 77.27% | Pf_72h_%Growth_Rep2 [1, 5]: 75.32% | Pf_120h_%Growth_Rep1 ([2]; library screen at 2 μg/mL, 120 h, % growth, replicate 1): 67.56% | Pf_120h_%Growth_Rep2 ([2]; library screen at 2 μg/mL, 120 h, % growth, replicate 2): 67.36% | Tg_72h_%Growth_Rep1 [3, 4]: 111.51% | Tg_72h_%Growth_Rep2 [3, 5]: 88.05%

Diacetoxyscirpenol
Pf_72h_%Growth_Rep1 [1]: 9.42% | Pf_72h_%Growth_Rep2 [1]: -2.86% | Pf_120h_%Growth_Rep1 [2]: 13.51% | Pf_120h_%Growth_Rep2 [2]: -0.91% | Tg_72h_%Growth_Rep1 [3]: -1.25% | Tg_72h_%Growth_Rep2 [3]: -0.43%

COc1cc([C@H]2[C@@]3(O)C[C@H]4C[C@]2(O)[C@](O)(C(=O)O4)[C@H]3C(=O)c2ccccc2)oc(=O)c1 [Deoxyenterocin]
Pf_72h_%Growth_Rep1 ([1]; P. falciparum, 72 h, screen at 2 μg/mL, replicate 1): 87.29% | Pf_72h_%Growth_Rep2 ([1]; P. falciparum, 72 h, screen at 2 μg/mL, replicate 2): 90.62% | Pf_120h_%Growth_Rep1 ([2]; P. falciparum, 120 h, screen at 2 μg/mL, replicate 1): 64.95% | Pf_120h_%Growth_Rep2 ([2]; P. falciparum, 120 h, screen at 2 μg/mL, replicate 2): 102.75% | Tg_72h_%Growth_Rep1 ([3]; T. gondii, 72 h, screen at 2 μg/mL, replicate 1): 127.64% | Tg_72h_%Growth_Rep2 ([3]; T. gondii, 72 h, screen at 2 μg/mL, replicate 2): 104.18%

CC[C@H]1C[C@@H]2CC[C@@H](O2)[C@@H](C)C(=O)O[C@H](C)C[C@H]2CC[C@H](O2)[C@H](C)C(=O)O[C@@H](C)C[C@@H]2CC[C@@H](O2)[C@@H](C)C(=O)O[C@H](C)C[C@H]2CC[C@H](O2)[C@H](C)C(=O)O1 [BIA-M1055]
Pf_72h_%Growth_Rep1 ([1]; P. falciparum 3D7, 72 h, parasite screen at 2 μg/mL, % growth, replicate 1): 7.23% | Pf_72h_%Growth_Rep2 ([1]; P. falciparum 3D7, 72 h, parasite screen at 2 μg/mL, % growth, replicate 2): 6.66% | Pf_120h_%Growth_Rep1 ([2]; P. falciparum 3D7, 120 h, parasite screen at 2 μg/mL, % growth, replicate 1): 15.60% | Pf_120h_%Growth_Rep2 ([2]; P. falciparum 3D7, 120 h, parasite screen at 2 μg/mL, % growth, replicate 2): 21.38% | Tg_72h_%Growth_Rep1 ([3]; T. gondii, 72 h, parasite screen at 2 μg/mL, % growth, replicate 1): 3.56% | Tg_72h_%Growth_Rep2 ([3]; T. gondii, 72 h, parasite screen at 2 μg/mL, % growth, replicate 2): 1.37%

CC(C)[C@H]1C(=O)O[C@H](C(C)C)C(=O)N(C)[C@@H](C(C)C)C(=O)O[C@H](C(C)C)C(=O)N(C)[C@@H](C(C)C)C(=O)O[C@H](C(C)C)C(=O)N1C [Enniatin B]
activity at 2 µg/mL ([1]; 3D7, library screen at 2 μg/mL, 72 h, % growth, replicate 1, read-out: Pf_72h_%Growth_Rep1): 4.68% | activity at 2 µg/mL ([1]; 3D7, library screen at 2 μg/mL, 72 h, % growth, replicate 2, read-out: Pf_72h_%Growth_Rep2): 1.65% | activity at 2 µg/mL ([2]; 3D7, library screen at 2 μg/mL, 120 h, % growth, replicate 1, read-out: Pf_120h_%Growth_Rep1): 2.26% | activity at 2 µg/mL ([2]; 3D7, library screen at 2 μg/mL, 120 h, % growth, replicate 2, read-out: Pf_120h_%Growth_Rep2): 4.15% | percent parasite growth at 2 µg/mL ([3]; library screen at 2 μg/mL, 72 h, % growth, replicate 1, read-out: Tg_72h_%Growth_Rep1): 3.2% | percent parasite growth at 2 µg/mL ([3]; library screen at 2 μg/mL, 72 h, % growth, replicate 2, read-out: Tg_72h_%Growth_Rep2): 30.3%

CO[C@H]1C[C@@H]2CC[C@@H](C)[C@@](O)(O2)C(=O)C(=O)N2CCCC[C@H]2C(=O)O[C@H]([C@H](C)C[C@@H]2CC[C@@H](OP(C)(C)=O)[C@H](OC)C2)CC(=O)[C@H](C)/C=C(\C)[C@@H](O)[C@@H](OC)C(=O)[C@H](C)C[C@H](C)/C=C/C=C/C=C/1C [Ridaforolimus]
activity at 2 µg/mL ([1]; 3D7, 72 h, P. falciparum, 72 h, parasite screen 2 μg/mL, % growth, replicate 1, read-out: Pf_72h_%Growth_Rep1): 68.5% | activity at 2 µg/mL ([1]; 3D7, 72 h, P. falciparum, 72 h, parasite screen 2 μg/mL, % growth, replicate 2, read-out: Pf_72h_%Growth_Rep2): 69.8% | activity at 2 µg/mL ([2]; 3D7, 120 h, P. falciparum, 120 h, parasite screen 2 μg/mL, % growth, replicate 1, read-out: Pf_120h_%Growth_Rep1): 75.1% | activity at 2 µg/mL ([2]; 3D7, 120 h, P. falciparum, 120 h, parasite screen 2 μg/mL, % growth, replicate 2, read-out: Pf_120h_%Growth_Rep2): 55.3% | percent parasite growth at 2 µg/mL ([3]; 72 h, T. gondii, 72 h, parasite screen 2 μg/mL, % growth, replicate 1, read-out: Tg_72h_%Growth_Rep1): 128% | percent parasite growth at 2 µg/mL ([3]; 72 h, T. gondii, 72 h, parasite screen 2 μg/mL, % growth, replicate 2, read-out: Tg_72h_%Growth_Rep2): 84.7%

COC1C(O)CC(=O)OC(C)CC=CC=CC(O)C(C)CC(CC=O)C1OC1OC(C)C(OC2CC(C)(O)C(OC(=O)CC(C)C)C(C)O2)C(N(C)C)C1O (stereo not drawn) [BIA-L1538]
Pf_72h_%Growth_Rep1 ([1]; P. falciparum 3D7, 72 h, library screen at 2 μg/mL, % growth, replicate 1): 49.92% | Pf_72h_%Growth_Rep2 ([1]; P. falciparum 3D7, 72 h, library screen at 2 μg/mL, % growth, replicate 2): 67.33% | Pf_120h_%Growth_Rep1 ([2]; P. falciparum 3D7, 120 h, library screen at 2 μg/mL, % growth, replicate 1): 5.60% | Pf_120h_%Growth_Rep2 ([2]; P. falciparum 3D7, 120 h, library screen at 2 μg/mL, % growth, replicate 2): 17.51% | Tg_72h_%Growth_Rep1 ([3]; T. gondii RH, 72 h, library screen at 2 μg/mL, % growth, replicate 1): 16.93% | Tg_72h_%Growth_Rep2 ([3]; T. gondii RH, 72 h, library screen at 2 μg/mL, % growth, replicate 2): 20.94%
